Measurements from PubChem BioAssay AID1259407 (Chemical Carcinogenesis Research Information System (CCRIS), 2018).
The source made the active and inactive calls. No rule for the calls is given here.

Tested on: CCRIS mutagenicity, Ames/micronucleus/aberration tests
Experiment: CCRIS mutagenicity studies

O=NO
mutagenic call (End Point: IN VIVO MICRONUCLEUS, Test System: BONE MARROW POLYCHROMATIC ERYTHROCYTES, Species: MOUSE, Strain/Sex: DDY/MALE, Route: IP): inactive; negative | mutagenic call (End Point: IN VIVO MICRONUCLEUS, Test System: BONE MARROW POLYCHROMATIC ERYTHROCYTES, Species: MOUSE, Strain/Sex: DDY/MALE, Route: ORAL): inactive; negative | mutagenic call (End Point: In vitro chromosomal aberrations, Test System: Chinese hamster lung CHL/IU cells, Metabolic Activation: None): inactive; negative | mutagenic call (Test System: AMES SALMONELLA TYPHIMURIUM, Strain/Indicator: DJ400, Metabolic Activation: NONE, Method: PREINCUBATION): inactive; negative | mutagenic call (Test System: AMES SALMONELLA TYPHIMURIUM, Strain/Indicator: DJ400, Metabolic Activation: NONE, Method: STANDARD PLATE): inactive; negative | mutagenic call (Test System: AMES SALMONELLA TYPHIMURIUM, Strain/Indicator: DJ400, Metabolic Activation: RAT, LIVER, S-9, AROCLOR 1254, Method: PREINCUBATION): inactive; negative | mutagenic call (Test System: AMES SALMONELLA TYPHIMURIUM, Strain/Indicator: DJ400, Metabolic Activation: RAT, LIVER, S-9, AROCLOR 1254, Method: STANDARD PLATE): inactive; negative | mutagenic call (Test System: AMES SALMONELLA TYPHIMURIUM, Strain/Indicator: DJ460, Metabolic Activation: NONE, Method: PREINCUBATION): inactive; negative | mutagenic call (Test System: AMES SALMONELLA TYPHIMURIUM, Strain/Indicator: DJ460, Metabolic Activation: NONE, Method: STANDARD PLATE): inactive; negative | mutagenic call (Test System: AMES SALMONELLA TYPHIMURIUM, Strain/Indicator: DJ460, Metabolic Activation: RAT, LIVER, S-9, AROCLOR 1254, Method: PREINCUBATION): inactive; negative | mutagenic call (Test System: AMES SALMONELLA TYPHIMURIUM, Strain/Indicator: DJ460, Metabolic Activation: RAT, LIVER, S-9, AROCLOR 1254, Method: STANDARD PLATE): inactive; negative | mutagenic call (Test System: AMES SALMONELLA TYPHIMURIUM, Strain/Indicator: TA97, Metabolic Activation: NONE, Method: STANDARD PLATE): inactive; negative | mutagenic call (Test System: AMES SALMONELLA TYPHIMURIUM, Strain/Indicator: TA97, Metabolic Activation: RAT, LIVER, S-9, AROCLOR 1254, Method: STANDARD PLATE): inactive; negative | mutagenic call (Test System: AMES SALMONELLA TYPHIMURIUM, Strain/Indicator: TA98, Metabolic Activation: HAMSTER LIVER S-9, AROCLOR 1254 (30%), Method: PREINCUBATION): inactive; negative | mutagenic call (Test System: AMES SALMONELLA TYPHIMURIUM, Strain/Indicator: TA98, Metabolic Activation: HAMSTER, LIVER, S-9, AROCLOR 1254 (30%), Method: PREINCUBATION): inactive; negative | mutagenic call (Test System: AMES SALMONELLA TYPHIMURIUM, Strain/Indicator: TA98, Metabolic Activation: NONE, Method: PREINCUBATION): inactive; negative | mutagenic call (Test System: AMES SALMONELLA TYPHIMURIUM, Strain/Indicator: TA98, Metabolic Activation: NONE, Method: STANDARD PLATE): inactive; negative | mutagenic call (Test System: AMES SALMONELLA TYPHIMURIUM, Strain/Indicator: TA98, Metabolic Activation: RAT LIVER S-9, AROCLOR 1254 (30%), Method: PREINCUBATION): inactive; negative | mutagenic call (Test System: AMES SALMONELLA TYPHIMURIUM, Strain/Indicator: TA98, Metabolic Activation: RAT, LIVER, S-9, AROCLOR 1254 (30%), Method: PREINCUBATION): inactive; negative | mutagenic call (Test System: AMES SALMONELLA TYPHIMURIUM, Strain/Indicator: TA98, Metabolic Activation: RAT, LIVER, S-9, AROCLOR 1254, Method: STANDARD PLATE): inactive; negative | mutagenic call (Test System: AMES SALMONELLA TYPHIMURIUM, Strain/Indicator: TA98, Metabolic Activation: RAT, LIVER, S-9, Method: STANDARD PLATE): inactive; negative | mutagenic call (Test System: AMES SALMONELLA TYPHIMURIUM, Strain/Indicator: TA100, Metabolic Activation: HAMSTER LIVER S-9, AROCLOR 1254 (30%), Method: PREINCUBATION): active; positive | mutagenic call (Test System: AMES SALMONELLA TYPHIMURIUM, Strain/Indicator: TA100, Metabolic Activation: HAMSTER, LIVER, S-9, AROCLOR 1254 (30%), Method: PREINCUBATION): active; positive | mutagenic call (Test System: AMES SALMONELLA TYPHIMURIUM, Strain/Indicator: TA100, Metabolic Activation: NONE, Method: PREINCUBATION): active; positive | mutagenic call (Test System: AMES SALMONELLA TYPHIMURIUM, Strain/Indicator: TA100, Metabolic Activation: NONE, Method: STANDARD PLATE): active; positive | mutagenic call (Test System: AMES SALMONELLA TYPHIMURIUM, Strain/Indicator: TA100, Metabolic Activation: RAT LIVER S-9, AROCLOR 1254 (30%), Method: PREINCUBATION): active; positive | mutagenic call (Test System: AMES SALMONELLA TYPHIMURIUM, Strain/Indicator: TA100, Metabolic Activation: RAT, LIVER, S-9, AROCLOR 1254 (30%), Method: PREINCUBATION): active; positive | mutagenic call (Test System: AMES SALMONELLA TYPHIMURIUM, Strain/Indicator: TA100, Metabolic Activation: RAT, LIVER, S-9, AROCLOR 1254, Method: PREINCUBATION): active; positive | mutagenic call (Test System: AMES SALMONELLA TYPHIMURIUM, Strain/Indicator: TA100, Metabolic Activation: RAT, LIVER, S-9, AROCLOR 1254, Method: STANDARD PLATE): active; positive | mutagenic call (Test System: AMES SALMONELLA TYPHIMURIUM, Strain/Indicator: TA100, Metabolic Activation: RAT, LIVER, S-9, Method: STANDARD PLATE): active; positive | mutagenic call (Test System: AMES SALMONELLA TYPHIMURIUM, Strain/Indicator: TA102, Metabolic Activation: NONE, Method: PREINCUBATION): inactive; negative | mutagenic call (Test System: AMES SALMONELLA TYPHIMURIUM, Strain/Indicator: TA102, Metabolic Activation: NONE, Method: STANDARD PLATE): inactive; negative | mutagenic call (Test System: AMES SALMONELLA TYPHIMURIUM, Strain/Indicator: TA102, Metabolic Activation: RAT, LIVER, S-9, AROCLOR 1254, Method: PREINCUBATION): inactive; negative | mutagenic call (Test System: AMES SALMONELLA TYPHIMURIUM, Strain/Indicator: TA102, Metabolic Activation: RAT, LIVER, S-9, AROCLOR 1254, Method: STANDARD PLATE): inactive; negative | mutagenic call (Test System: AMES SALMONELLA TYPHIMURIUM, Strain/Indicator: TA104, Metabolic Activation: RAT, LIVER, S-9, AROCLOR 1254, Method: PREINCUBATION): active; positive | mutagenic call (Test System: AMES SALMONELLA TYPHIMURIUM, Strain/Indicator: TA1530, Metabolic Activation: NONE, Method: PREINCUBATION): active; positive | mutagenic call (Test System: AMES SALMONELLA TYPHIMURIUM, Strain/Indicator: TA1530, Metabolic Activation: NONE, Method: STANDARD PLATE): active; positive | mutagenic call (Test System: AMES SALMONELLA TYPHIMURIUM, Strain/Indicator: TA1530, Metabolic Activation: RAT, LIVER, S-9, AROCLOR 1254, Method: PREINCUBATION): active; positive | mutagenic call (Test System: AMES SALMONELLA TYPHIMURIUM, Strain/Indicator: TA1530, Metabolic Activation: RAT, LIVER, S-9, AROCLOR 1254, Method: STANDARD PLATE): active; positive | mutagenic call (Test System: AMES SALMONELLA TYPHIMURIUM, Strain/Indicator: TA1535, Metabolic Activation: NONE, Method: PREINCUBATION): active; positive | mutagenic call (Test System: AMES SALMONELLA TYPHIMURIUM, Strain/Indicator: TA1535, Metabolic Activation: NONE, Method: STANDARD PLATE): active; positive | mutagenic call (Test System: AMES SALMONELLA TYPHIMURIUM, Strain/Indicator: TA1535, Metabolic Activation: RAT, LIVER, S-9, AROCLOR 1254, Method: PREINCUBATION): active; positive | mutagenic call (Test System: AMES SALMONELLA TYPHIMURIUM, Strain/Indicator: TA1535, Metabolic Activation: RAT, LIVER, S-9, AROCLOR 1254, Method: STANDARD PLATE): active; positive | mutagenic call (Test System: AMES SALMONELLA TYPHIMURIUM, Strain/Indicator: TA1535, Metabolic Activation: RAT, LIVER, S-9, Method: STANDARD PLATE): active; positive | mutagenic call (Test System: AMES SALMONELLA TYPHIMURIUM, Strain/Indicator: TA1537, Metabolic Activation: NONE, Method: STANDARD PLATE): inactive; negative | mutagenic call (Test System: AMES SALMONELLA TYPHIMURIUM, Strain/Indicator: TA1537, Metabolic Activation: RAT, LIVER, S-9, AROCLOR 1254, Method: STANDARD PLATE): inactive; negative | mutagenic call (Test System: AMES SALMONELLA TYPHIMURIUM, Strain/Indicator: TA1538, Metabolic Activation: NONE, Method: STANDARD PLATE): inactive; negative | mutagenic call (Test System: AMES SALMONELLA TYPHIMURIUM, Strain/Indicator: TA1538, Metabolic Activation: RAT, LIVER, S-9, AROCLOR 1254, Method: STANDARD PLATE): inactive; negative | mutagenic call (Test System: AMES SALMONELLA TYPHIMURIUM, Strain/Indicator: TA1538, Metabolic Activation: RAT, LIVER, S-9, Method: STANDARD PLATE): inactive; negative | mutagenic call (Test System: AMES SALMONELLA TYPHIMURIUM, Strain/Indicator: YG1024, Metabolic Activation: NONE, Method: PREINCUBATION): inactive; negative | mutagenic call (Test System: AMES SALMONELLA TYPHIMURIUM, Strain/Indicator: YG1024, Metabolic Activation: NONE, Method: STANDARD PLATE): inactive; negative | mutagenic call (Test System: AMES SALMONELLA TYPHIMURIUM, Strain/Indicator: YG1024, Metabolic Activation: RAT, LIVER, S-9, AROCLOR 1254, Method: PREINCUBATION): inactive; negative | mutagenic call (Test System: AMES SALMONELLA TYPHIMURIUM, Strain/Indicator: YG1024, Metabolic Activation: RAT, LIVER, S-9, AROCLOR 1254, Method: STANDARD PLATE): inactive; negative | mutagenic call (Test System: CHINESE HAMSTER V-79, Strain/Indicator: V-79/6-THIOGUANINE, Metabolic Activation: NONE): active; positive | mutagenic call (Test System: E. COLI, Strain/Indicator: WP2, Metabolic Activation: NONE, Method: STANDARD PLATE): inactive; negative | mutagenic call (Test System: E. COLI, Strain/Indicator: WP2, Metabolic Activation: RAT, LIVER, S-9, AROCLOR 1254, Method: STANDARD PLATE): inactive; negative | mutagenic call (Test System: E.COLI, Strain/Indicator: WP2UVRA/PKM101, Metabolic Activation: NONE, Method: PREINCUBATION): inactive; negative | mutagenic call (Test System: E.COLI, Strain/Indicator: WP2UVRA/PKM101, Metabolic Activation: RAT LIVER S-9, PHENOBARBITAL AND 5,6-BENZOFLAVONE, Method: PREINCUBATION): inactive; negative | mutagenic call (Test System: MOUSE LYMPHOMA, Strain/Indicator: L5178Y (TK+/TK-), Metabolic Activation: NONE, Method: SUSPENSION/PLATE): active; positive
